US20180000085A1, “USE OF PICOLINAMIDE COMPOUNDS WITH FUNGICIDAL ACTIVITY” (DOW AGROSCIENCES LLC, priority 2014, published 2018)

Columns and labels:
Puccinia triticina = assay: Wheat brown rust (PUCCRT) disease control on wheat seedlings; assay type: in vivo; design: key to PUCCRT 3DC, HV activity at 100 ppm (% control rating) / PUCCRT disease control, 3DC / PUCCRT 1DP disease control rating, HV activity / PUCCRT 3DC disease control rating, HV activity / PUCCRT 3DC, LV activity at 125.1 g/H (% Control rating) / PUCCRT 1DP, LV activity at 125.1 g/H (% Control rating) / PUCCRT 3DC disease control rating, LV activity at 125.1 g/H / PUCCRT 1DP disease control rating, LV activity at 125.1 g/H / PUCCRT 3DC disease control rating, HV activity at 100 ppm / PUCCRT 1DP disease control rating, HV activity at 100 ppm / HV activity at 100 ppm PUCCRT 3DC (disease control rating) / LV activity at 125.1 g/H PUCCRT 1DP (disease control rating) / LV activity at 125.1 g/H PUCCRT 3DC (disease control rating): A: > 80; B: ≤ 80; C: Not Tested; D: No Activity Observed in the Reported Assay; conditions: for PUCCRT 1DP disease control rating, HV activity / PUCCRT 3DC disease control rating, HV activity: HV application at 100 ppm
Zymoseptoria tritici = assay: Leaf blotch of wheat (SEPTTR) disease control on wheat seedlings; assay type: in vivo; design: key to SEPTTR 1DP, HV activity at 100 ppm (% control rating) / SEPTTR 3DC, HV activity at 100 ppm (% control rating) / SEPTTR disease control, 1DP / SEPTTR disease control, 3DC / SEPTTR 1DP disease control rating, HV activity / SEPTTR 3DC disease control rating, HV activity / SEPTTR 3DC, LV activity at 125.1 g/H (% Control rating) / SEPTTR 1DP, LV activity at 125.1 g/H (% Control rating) / SEPTTR 1DP disease control rating, LV activity at 125.1 g/H / SEPTTR 3DC disease control rating, LV activity at 125.1 g/H / SEPTTR 3DC disease control rating, HV activity at 100 ppm / SEPTTR 1DP disease control rating, HV activity at 100 ppm / HV activity at 100 ppm SEPTTR 3DC (disease control rating) / HV activity at 100 ppm SEPTTR 1DP (disease control rating) / LV activity at 125.1 g/H SEPTTR 1DP (disease control rating) / LV activity at 125.1 g/H SEPTTR 3DC (disease control rating): A: > 80; B: ≤ 80; C: Not Tested; D: No Activity Observed in the Reported Assay; conditions: for SEPTTR 1DP disease control rating, HV activity / SEPTTR 3DC disease control rating, HV activity: HV application at 100 ppm
[1] = low volume application, 125.1 g/H, 1 Day Protectant
[2] = low volume application, 125.1 g/H, 3 Day Curative
[3] = high volume application, 100 ppm, 1 day protectant
[4] = high volume application, 100 ppm, 3 day curative
[5] = 1 Day Protectant, wheat brown rust
[6] = 3 Day Curative, wheat brown rust
[7] = 1 Day Protectant, wheat leaf blotch
[8] = 3 Day Curative, wheat leaf blotch
[9] = low volume application, 125.1 g/H, 1 day protectant
[10] = low volume application, 125.1 g/H, 3 day curative

| Structure (SMILES) | PUCCRT 1DP, LV activity at 125.1 g/H (% Control rating) (Puccinia triticina; [1]) | PUCCRT 3DC, LV activity at 125.1 g/H (% Control rating) (Puccinia triticina; [2]) | SEPTTR 1DP, LV activity at 125.1 g/H (% Control rating) (Zymoseptoria tritici; [1]) | SEPTTR 3DC, LV activity at 125.1 g/H (% Control rating) (Zymoseptoria tritici; [2]) | PUCCRT 1DP disease control rating, HV activity (Puccinia triticina; [5]) | PUCCRT 3DC disease control rating, HV activity (Puccinia triticina; [6]) | SEPTTR 1DP disease control rating, HV activity (Zymoseptoria tritici; [7]) | SEPTTR 3DC disease control rating, HV activity (Zymoseptoria tritici; [8]) | other results |
| --- | --- | --- | --- | --- | --- | --- | --- | --- | --- |
| COc1ccnc(C(=O)N[C@H](C(=O)O[C@@H](C)[C@H](Oc2ccc(C(F)(F)F)cc2)c2ccccc2)C(C)C)c1OC(C)=O [Cmpd 585] | A (> 80) | B (≤ 80) | A (> 80) | D |  |  |  |  |  |
| COc1ccnc(C(=O)N[C@H](C(=O)O[C@@H](C)[C@H](Oc2ccccc2)C(C)C)C(C)C)c1O [Cmpd 811] |  |  |  |  |  |  |  |  | PUCCRT 1DP disease control rating, HV activity at 100 ppm (Puccinia triticina; [3]): A (> 80); PUCCRT 3DC disease control rating, HV activity at 100 ppm (Puccinia triticina; [4]): A (> 80); SEPTTR 1DP disease control rating, HV activity at 100 ppm (Zymoseptoria tritici; [3]): B (≤ 80); SEPTTR 3DC disease control rating, HV activity at 100 ppm (Zymoseptoria tritici; [4]): B (≤ 80) |
| COc1ccnc(C(=O)N[C@@H](C)C(=O)O[C@@H](C)[C@H](Oc2ccccc2)C2CC2)c1OC(C)=O [Cmpd 1064] |  |  |  |  |  |  |  |  | LV activity at 125.1 g/H PUCCRT 1DP (disease control rating) (Puccinia triticina; low volume application, 125.1 g/H, 1 Day Protectant, wheat brown rust): A (> 80); LV activity at 125.1 g/H PUCCRT 3DC (disease control rating) (Puccinia triticina; low volume application, 125.1 g/H, 3 Day Curative, wheat brown rust): A (> 80); LV activity at 125.1 g/H SEPTTR 1DP (disease control rating) (Zymoseptoria tritici; low volume application, 125.1 g/H, 1 Day Protectant, wheat leaf blotch): B (≤ 80); LV activity at 125.1 g/H SEPTTR 3DC (disease control rating) (Zymoseptoria tritici; low volume application, 125.1 g/H, 3 Day Curative, wheat leaf blotch): A (> 80) |
| CCCO[C@@H]([C@H](C)OC(=O)[C@H](C)NC(=O)c1nccc(OC)c1O)[C@H](CC)Oc1ccccc1 [Cmpd 326, (S)-(2S,3S,4S)-4-phenoxy-3-propoxyhexan-2-yl-2-(3-hydroxy-4-methoxypicolinamido)propanoate] |  |  |  |  | A (> 80) | A (> 80) | D | D |  |
| CCC(CC)[C@@H](Oc1cccc(-c2ccccc2)c1)[C@H](C)OC(=O)[C@@H](NC(=O)c1nccc(OC)c1OCOC(C)=O)C(C)C [Cmpd 654] | A (> 80) | D | B (≤ 80) | D |  |  |  |  |  |
| CCC(CC)[C@@H](Oc1ccc(-c2ccccc2)cc1)[C@H](C)OC(=O)[C@@H](NC(=O)c1nccc(OC)c1OCOC(C)=O)C(C)C [Cmpd 655] | A (> 80) | B (≤ 80) | A (> 80) | B (≤ 80) |  |  |  |  |  |
| COc1ccnc(C(=O)N[C@H](C(=O)O[C@@H](C)[C@H](Oc2ccc(C(F)(F)F)cc2)c2ccccc2)C(C)C)c1OCOC(C)=O [Cmpd 584] | A (> 80) | B (≤ 80) | A (> 80) | D |  |  |  |  |  |
| COc1ccnc(C(=O)N[C@@H](C)C(=O)O[C@@H](C)COC(=O)C(C)C)c1O [Cmpd 336] |  |  |  |  | D | D | B (≤ 80) | B (≤ 80) |  |
| CCC(CC)C(Oc1ccc(Cl)cc1)C(C)OC(=O)C(CC(C)C)NC(=O)c1nccc(OC)c1O (stereo not shown) [Cmpd 427] |  |  |  |  | B (≤ 80) | D | D | D |  |
| COc1ccnc(C(=O)N[C@@H](C)C(=O)O[C@@H](C)[C@H](Oc2cccc(F)c2)c2cccc(-c3ccccc3)c2)c1OCOC(C)=O [Cmpd 874] |  |  |  |  |  |  |  |  | PUCCRT 1DP disease control rating, LV activity at 125.1 g/H (Puccinia triticina; [9]): A (> 80); PUCCRT 3DC disease control rating, LV activity at 125.1 g/H (Puccinia triticina; [10]): B (≤ 80); SEPTTR 1DP disease control rating, LV activity at 125.1 g/H (Zymoseptoria tritici; [9]): A (> 80); SEPTTR 3DC disease control rating, LV activity at 125.1 g/H (Zymoseptoria tritici; [10]): B (≤ 80) |
